One experiment relates to Wistar-Han rats. The experiment can be described thus: Inhibition of carrageenan edema. Format: in vivo. As to conditions: dose 100 mg/kg; for inhibition in vivo at 100 mg/kg: Rattus norvegicus, read-out: CE: inhibition of carrageenan-induced edema, % of inh.
The target in the next experiment is T1, LTD4 receptor (Cavia porcellus, UniProt Q2NNR5).
T1 construct: The membrane fraction was prepared from male guinea-pig lungs; from tissue; host or cells: male guinea-pig lung membranes
T1 sequence (Q2NNR5 1-340): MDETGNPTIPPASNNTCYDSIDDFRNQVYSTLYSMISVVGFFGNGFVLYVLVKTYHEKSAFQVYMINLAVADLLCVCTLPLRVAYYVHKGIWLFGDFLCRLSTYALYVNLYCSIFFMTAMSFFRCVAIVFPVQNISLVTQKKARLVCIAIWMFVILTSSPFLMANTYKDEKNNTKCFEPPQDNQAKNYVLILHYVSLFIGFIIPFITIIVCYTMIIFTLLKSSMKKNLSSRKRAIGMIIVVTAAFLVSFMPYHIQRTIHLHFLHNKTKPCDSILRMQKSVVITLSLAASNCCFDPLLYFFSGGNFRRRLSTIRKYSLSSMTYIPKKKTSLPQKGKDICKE
In words: LTD4 receptor binding study. The settings on record: 3H-LTD4, guinea-pig lung membranes; for IC50: read-out: Inh. of LTD4 rec. binding, IC50. The essentials: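 Guinea-pig lung membranes (male animals) were incubated with 0.4 nM ³H-LTD4 for 60 min at 25 °C. Nonspecific binding was defined with 0.1 μM LTD4. Bound radioactivity was measured after filtration and washing.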

Experiment [1] deals with peroxidation of lipids from the hepatic cells membranes. The experiment can be described thus: Antioxidant effect in vitro. Format: biochemical. As to conditions: at 100 μg. From the text:
Antioxidant Effect in vitro
The end-product, malonic dialdehyde, was transformed to coloured complex with thiobarbituric acid and determined spectrophotometrically. The antioxidant effect was expressed in % of peroxidation inhibition in the presence of the compound tested in comparison to a control sample.

The target of the next experiment is LTB4 receptor (Cavia porcellus, UniProt H0VYV8). The experiment can be described thus: LTB4 receptor binding study. As to conditions: 3H-LTB4, guinea-pig spleen membranes; for IC50: read-out: Inh. of LTB4 rec. binding, IC50; for inhibition at 20 µM: read-out: Inh. of LTB4 rec. binding, %. In short, it runs like this:
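Male guinea-pig spleen membranes (2 mg) incubated with 0.3 nM ^3H-LTB4 for 30 min at 25 °C; nonspecific binding defined with 0.1 μM LTB4. Bound ligand collected by GF/C filtration, counted by liquid scintillation to give specific binding.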

Experiment [2] has as its system bronchospasm induced by LTD4. The experiment can be described thus: Inhibition of bronchospasm induced by LTD4. Format: in vivo. As to conditions: for Inhibition of bronchospasm induced by LTD4, % of inhibition: dose 100 mg/kg. How it is done:
(§1) Inhibition of Allergic Bronchospasm Induced by […] (Compound 48/80 or Ovalbumin, Respectively)
(§2) The modified method of Kreutner W. et al (Krelutner W. et al.: Agents Actions 28, 253 (1989)) was used. Bronchoconstrictioin was induced by intravenous injection of 1 μg/kg LTD4 (3 mg/kg of compound […] or 0.35 mg/kg of ovalbumin, respectively). In the case of oval-bumin, the animals were senzitized by intraperitoneal injection of ovalbumin (100 mg/kg) 14 days before induction. The compounds tested were applied 5 min before the administration of the inductor; the vehiculum used for the application of compound tested was administered to the control group of animals. The tracheal pressure was determined in the intervals of 2, 4 and 10 minutes after induction. The effect was expressed in percentage inhibition of bronchospasm relative to the untreated control.

In experiment [3] the test system is bronchospasm induced by ovalbumin. In words: Inhibition of bronchospasm induced by ovalbumin. As to conditions: for Inhibition of bronchospasm induced by ovalbumin, % of inhibition: dose 100 mg/kg. The format is in vivo. As to the method: as §1, §2
A further experiment concerns male mice. In words: Inhibition of arachidonic acid-induced ear inflammation in mice. Format: in vivo. The settings on record: for inhibition in vivo at 200 mg/kg: Mus musculus, po, 1 h. In short, it runs like this:
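Compounds given orally 1 h before ear inflammation was induced in male mice with 20 µl arachidonic acid in acetone (100 mg/ml). Animals killed 1 h after induction. Ear hyperemia and ear-lobe weight assessed against the vehicle-treated contralateral ear.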

A further experiment deals with rats. In words: Inhibition of carrageenan-induced pleuritis in rats. The format is in vivo. As to conditions: dose 100 mg/kg, oral, values with mark n: p > 0.05; for inhibition in vivo at 100 mg/kg: Rattus norvegicus, po, 4 h. The essentials: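 Rats given test drug as single oral dose 1 h before intrapleural 0.5% carrageenan (1 ml) under light ether anaesthesia. Pleural exudate collected 4 h later; volume, cellularity and total cell count measured.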

The test system of experiment [4] is LTB4 production in rat polymorphonuclear cells. In words: Ex vivo inhibition of LTB4 production (LTB4 biosynthesis). As to conditions: for IC50: Rattus norvegicus, read-out: Inh. of LTB4 biosynth., IC50; for Inh. of LTB4 biosynth., %: at 30 μg (%/μg). The format is cell-based.
[5] abbreviates: read-out: Inh. of LTD4 rec. binding, %.
[6] abbreviates: values with mark n: p > 0.05, read-out: Ear edema, D: edema of ear lobe, % of inh.
Setting [7] is: values with mark n: p > 0.05, read-out: Ear edema, E: hyperemia of ear lobe, % of inh.
The mark [8] stands for this setting: read-out: Experimental pleuritis, A: volume of exudate in pleural cavity, % of inh.
Where [9] appears, read: read-out: Experimental pleuritis, B: number of cells, % of inh.
Where [10] appears, read: read-out: Experimental pleuritis, C: cellularity in a volume unit, % of inh.
Setting [11] is: dose 200 mg/kg, oral, values with mark n: p > 0.05, 200 mg/kg.

In brackets after ≈: the same amount, converted by molar mass. Counter-ions that a name gives are not always drawn. Like-named read-outs stand apart in the source and are kept apart here.

Chain of LTB4 receptor (H0VYV8 1-348): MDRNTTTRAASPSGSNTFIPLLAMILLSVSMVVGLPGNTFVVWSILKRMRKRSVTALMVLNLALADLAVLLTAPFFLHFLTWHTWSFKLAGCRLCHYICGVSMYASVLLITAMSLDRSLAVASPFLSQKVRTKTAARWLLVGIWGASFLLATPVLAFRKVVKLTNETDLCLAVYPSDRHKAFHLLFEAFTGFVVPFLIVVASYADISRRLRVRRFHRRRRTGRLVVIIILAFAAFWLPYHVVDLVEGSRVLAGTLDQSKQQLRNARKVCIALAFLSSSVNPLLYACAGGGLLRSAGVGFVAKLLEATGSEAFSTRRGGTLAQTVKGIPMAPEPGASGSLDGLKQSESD

Turning to `O=C(O)c1ccccc1Sc1cccc(OCc2ccc3ccccc3n2)c1` [Compound 17, 2-(3-(Quinoline-2-ylmethoxy)phenylsulfanyl)benzoic Acid], the inhibition in vivo at 100 mg/kg was 19% in the experiment with Wistar-Han rats; 11% in [2] (2 min); 28% in [2] (4 min); 23% in experiment [2] (10 min); 23% in experiment [3] (2 min); 36% in experiment [3] (4 min). Also, the inhibition in vivo at 100 mg/kg in [3] (10 min) turned out to be 50%; with rats (setting [8]) it was 5%; in the experiment on rats (setting [9]) it was 20%; in the experiment with rats (setting [10]), 15%. Further, the IC50 at LTD4 receptor was 0.63 µM; at LTB4 receptor, 44.2 µM; in experiment [4], 0.08 µg/mL (≈ 0.206 µM). Besides, the inhibition at 100 µM on LTD4 receptor (setting [5]) turned out to be 100%. The “Antiox. effect, % of peroxidation inhibition” value in [1] was found to be 4%. In addition, the inhibition at 20 µM on LTB4 receptor (at 20 μM) was 38%. In addition, the inhibition in vivo at 200 mg/kg with male mice (setting [6]) came out at 16%; with male mice (setting [7]) it was 3%. Besides, the “Inh. of LTB4 biosynth., %” value in experiment [4] was 100%.

As for `O=C(O)c1ccc(Sc2ccc(OCc3ccc4cc(Cl)ccc4n3)cc2)cc1` [Compound 22, 4-(4-(6-Chloroquinoline-2-ylmethoxy)phenylsulfanyl)benzoic Acid], the inhibition in vivo at 100 mg/kg was 14% in the experiment on Wistar-Han rats; 14% in experiment [2] (2 min); 33% in [2] (4 min); 43% in experiment [2] (10 min); 3% in experiment [3] (2 min); 15% in [3] (4 min). Further, the inhibition in vivo at 100 mg/kg amounted to 30% in [3] (10 min), 10% with rats (setting [8]), 25% in the experiment on rats (setting [9]) and 15% in the experiment with rats (setting [10]). For the same compound, the values for the IC50 (on LTD4 receptor; at LTB4 receptor; in [4]) were 3.8 µM, 50 µM and 0.07 µg/mL (≈ 0.166 µM), respectively. Further, at LTD4 receptor (setting [5]), the inhibition at 100 µM stood at 84%. For the same compound, the “Antiox. effect, % of peroxidation inhibition” value in [1] is 13%. Besides, on LTB4 receptor (at 20 μM), the inhibition at 20 µM was 22%. The inhibition in vivo at 200 mg/kg in the experiment with male mice (setting [6]) was determined as 1%; with male mice (setting [7]), 9%. Also, the “Inh. of LTB4 biosynth., %” value in [4] is given as 97%.

On to `CCCc1c(OCCCOc2cccc(Sc3ccc(C(=O)O)cc3)c2)ccc(C(C)=O)c1O` [Compound 5, 4-(3-(3-(4-Acetyl-3-hydroxy-2-propylphenoxy)propoxy)phenylsulfanyl)benzoic Acid], for which the inhibition in vivo at 100 mg/kg in the experiment with Wistar-Han rats came out at 14%; in experiment [2] (4 min), 16%; with rats (setting [8]), 10%; in the experiment with rats (setting [9]), 46%; in the experiment on rats (setting [10]) it was 61%. For the same compound, the IC50 on LTD4 receptor was found to be 15.1 µM; at LTB4 receptor it was 9.6 µM; in experiment [4], 0.05 µg/mL (≈ 0.104 µM). For the same compound, the inhibition at 100 µM at LTD4 receptor (setting [5]) came to 97%. For the same compound, the “Antiox. effect, % of peroxidation inhibition” value in experiment [1] came out at 75%. For the same compound, the inhibition at 20 µM on LTB4 receptor (at 20 μM) was determined as 65%. Besides, the inhibition in vivo at 200 mg/kg was found to be 1% with male mice (setting [6]) and 0% in the experiment on male mice (setting [7]). In experiment [4], the “Inh. of LTB4 biosynth., %” value came out at 100%.

Regarding `CC(c1cc2ccccc2s1)N(O)C(N)=O` (centres unmarked) [Zileuton, reference compound], the inhibition in vivo at 100 mg/kg turned out to be 46% with Wistar-Han rats; 10% in experiment [2] (2 min); 54% in experiment [2] (4 min); 75% in experiment [2] (10 min); 23% in experiment [3] (2 min); 28% in experiment [3] (4 min). Also, the inhibition in vivo at 100 mg/kg was 50% in experiment [3] (10 min), 36% in the experiment with rats (setting [8]), 49% in the experiment with rats (setting [9]) and 20% in the experiment with rats (setting [10]). In addition, the inhibition at 100 µM on LTD4 receptor (setting [5]) came to 7%. The inhibition at 20 µM at LTB4 receptor (at 20 μM) was found to be 28%. In addition, the inhibition in vivo at 200 mg/kg came out at 9% in the experiment on male mice (setting [6]) and 13% in the experiment on male mice (setting [7]). The IC50 in [4] worked out at 0.17 µg/mL (≈ 0.719 µM). Moreover, the “Inh. of LTB4 biosynth., %” value in experiment [4] came to 100%.

For the compound `CON1CC/C(=C\c2cc(C(C)(C)C)c(O)c(C(C)(C)C)c2)C1=O` [E 5110, reference compound], the “Inhibition of bronchospasm induced by LTD4, % of inhibition” value was 45% in experiment [2] (2 min), 55% in experiment [2] (4 min) and 58% in experiment [2] (10 min). The figures for the “Inhibition of bronchospasm induced by ovalbumin, % of inhibition” value in [3] (2 min), in experiment [3] (4 min) and in experiment [3] (10 min) were 74%, 71% and 69%, respectively.

In the case of `CCCc1c(OCCCCOc2cccc(Sc3ccc(C(=O)O)cc3)c2)ccc(C(C)=O)c1O` [Compound 8, 4-(3-(4-(4-Acetyl-3-hydroxy-2-propylphenoxy)butoxy)phenylsulfanyl)benzoic Acid], the inhibition in vivo at 100 mg/kg is 24% in the experiment on Wistar-Han rats; 98% in experiment [2] (4 min); 7% with rats (setting [8]); 18% in the experiment with rats (setting [9]); 11% in the experiment with rats (setting [10]). Further, the IC50 at LTD4 receptor is 39.3 µM; on LTB4 receptor, 3.7 µM; in [4], 0.52 µg/mL (≈ 1.05 µM). Besides, the inhibition at 100 µM on LTD4 receptor (setting [5]) was 69%. Besides, in [1], the “Antiox. effect, % of peroxidation inhibition” value is listed as 22%. Further, the inhibition at 20 µM on LTB4 receptor (at 20 μM) turned out to be 100%. The inhibition in vivo at 200 mg/kg amounted to 1% in the experiment on male mice (setting [6]) and 9% in the experiment with male mice (setting [7]). Further, in experiment [4], the “Inh. of LTB4 biosynth., %” value came to 100%.

With `O=C(O)c1ccccc1Sc1cccc(OCc2ccc3cc(Cl)ccc3n2)c1` [Compound 23, Tromethammonium salt of 2-(3-(6-Chloroquinoline-2-ylmethoxy)phenyl-sulfanyl)benzoic Acid], the “CE: inhibition of carrageenan-induced edema, % of inh.” value with Wistar-Han rats came out at 50%. For the same compound, the IC50 on LTD4 receptor was found to be 0.1 µM. For the same compound, the inhibition at 20 µM at LTD4 receptor (at 20 μM, read-out: Inh. of LTD4 rec. binding, %) was found to be 99%. In [1], the “Antiox. effect, % of peroxidation inhibition” value is given as 9%. Moreover, the IC50 at LTB4 receptor turned out to be 13.5 µM. For the same compound, the “Inh. of LTB4 rec. binding, %” value on LTB4 receptor (at 20 μM) stood at 33%. Besides, in the experiment with male mice (setting [11]), the “Ear edema, D: edema of ear lobe, % of inh.” value is listed as 1 (s) % and the “Ear edema, E: hyperemia of ear lobe, % of inh.” value was found to be 8%. Also, in the experiment with rats (100 mg/kg), the “Experimental pleuritis, A: volume of exudate in pleural cavity, % of inh.” value is 17%; the “Experimental pleuritis, B: number of cells, % of inh.” value was 31%; the “Experimental pleuritis, C: cellularity in a volume unit, % of inh.” value was 17%. Further, in [4], the “Inh. of LTB4 biosynth., IC50” value turned out to be 0.96 µg/mL and the “Inh. of LTB4 biosynth., %” value is listed as 96%.
